According to article PMC8635029 (Frontiers in Pharmacology, 2021):
Structures can show the parent of a compound that is named as a salt.

Key:
ICR mice [1] = experiment: Compound 48/80-induced scratching test; format: in vivo; conditions: 0.02 mg/kg
Description: After acclimatization for 30–60 min in Plexiglas chambers, the male ICR mice were given vehicle or test compounds. Compound 48/80 (50 μg, 0.1 ml) was subcutaneously injected into the back of the neck at 15 min after drug administration ([Salaga et al., 2015]). The mice were immediately placed back into the chambers and the scratching behaviors were recorded for 30 min ([Kobayashi et al., 2003]; [Inan et al., 2009]; [Hachisuka et al., 2010]). One bout of scratching was defined as the mouse lifting its hindpaw towards the injection site to scratch until it either licked or bite the hindpaw or placed it back down on the floor ([Nojima and Carstens, 2003]). The percentage inhibition of scratching was calculated by the following formula: % antipruritis = (Bv−Bt)/Bv × 100, where Bv is the bouts of scratching in vehicle group and Bt is the bouts of scratching in treatment groups.

ICR mice [2] = experiment: Measurement of respiration (whole body plethysmography); format: in vivo
Description: A whole body plethysmography (DSI, US) was used to measure respiration in freely moving ICR mice (half male and half female) as described previously ([Manglik et al., 2016]; [Hill et al., 2018a]; [Hill et al., 2018b]) with some modifications. The respiratory frequency was recorded and then averaged for over 5-min period. The baseline values were recorded for 10 min before dosing. The mice were then removed from the chambers and given drugs, and respiration was then measured for 45 min.

mice = experiment: Locomotor activity test (sedation)
ICR mice [3] = experiment: Acetic acid-induced writhing test; format: in vivo; conditions: 10 mg/kg s.c., 24 h post-dosing
Description: ICR mice (half male and half female) were used in this assay. […] A writhe was defined as a wave of contraction of the abdominal musculature followed by extension of the hind limbs ([Wang et al., 2018]). The percentage inhibition of writhes was calculated by the following formula: % antinociception = (Nv−Nt)/Nv × 100, where Nv is the number of writhes in vehicle group and Nt is the number of writhes in treatment groups.

SD rats [4] = experiment: Hindpaw incision model (mechanical allodynia, von Frey); format: in vivo; conditions: 10 mg/kg
Description: The surgery was conducted as reported previously ([Brennan et al., 1996]; [Whiteside et al., 2004]; [Biddlestone et al., 2007]). Male SD rats were anesthetized with isoflurane inhalation (3–5%) and the plantar surface of the left hindpaw was sterilized using iodophor solution. A 1-cm longitudinal incision was made on the plantar surface with no. Eleven scalpel blade, starting at 0.5 cm from the heel and extending toward the toes. The deep fascia was cut to expose the flexor digitorum brevis muscle. The muscle was elevated with curved forceps and incised longitudinally with the tip of a scalpel blade without disturbing the origin and insertion. […] The responses to mechanical stimulation of the hindpaws were recorded at 2 h post-surgery and the mechanical pain thresholds were defined as pre-dose values. After dividing into different groups according to the pre-dose values, the animals were administered vehicle (normal saline) or test compounds and the mechanical pain thresholds were measured at 15 min and 24 h post-dose.
(§1) The rats were placed individually in Plexiglas chambers on a metallic mesh floor and allowed to acclimatize for 30–60 min ([Tsuda et al., 2011]). Mechanical allodynia was determined by probing the plantar surface of the hindpaw from below the mesh floor with a series of calibrated von Frey filaments (Stoelting) in log increments of force ([Lai et al., 2006]). […]

SD rats [5] = experiment: Chronic constriction injury (CCI) model (mechanical allodynia, von Frey); format: in vivo; conditions: 10 mg/kg
Description: The CCI surgery was performed as described previously with slight modifications ([Bennett and Xie, 1988]). Male SD rats were used in the CCI model. After isoflurane inhalation anesthesia, the femoral skin of the left hindlimb was incised and the sciatic nerve was exposed by blunt dissection of the biceps femoris muscle with a pair of forceps ([Chen et al., 2018]). A 2 mm-long polyethylene cuff was successively implanted around the nerve and the incision was then closed with skin stapler ([Bailey and Ribeiro-da-Silva, 2006]; [Balasubramanyan et al., 2006]). Animals were returned to their cages after recovering from anesthesia. Seventeen days after the surgery, the responses to mechanical stimulation of the hindpaws were measured before the compounds were administered. The rats were then divided into different groups according to the pre-administration values. After the animals were given vehicle or test compounds, the mechanical pain thresholds were taken at multiple time points.
as §1

C57BL/6J mice = experiment: Hot-plate test; format: in vivo; conditions: 10 mg/kg
Description: The hot-plate test was performed according to previous reports ([DeWire et al., 2013]; [Hill et al., 2018a]; [Wang et al., 2018]). Female C57BL/6J mice were individually placed on a hot plate at 56°C and the latency to licking or jumping was then recorded. A cut-off time of 30 s was imposed in order to prevent tissue damage. Before drug administration, the latency of each mouse was measured and defined as the pre-drug value. The animals with a pre-drug value of greater than 20 s were excluded.

CN(C(=O)/C=C/c1ccoc1)[C@@H]1CC[C@@]2(O)[C@H]3Cc4ccc(O)c5c4[C@@]2(CCN3CC2CC2)[C@H]1O5 [nalfurafine, nalfurafine hydrochloride]
inhibitory rate on scratching responses (ICR mice [1]): 94.30%

CC(C)C[C@@H](NC(=O)[C@@H](Cc1ccccc1)NC(=O)[C@H](N)Cc1ccccc1)C(=O)N[C@H](CCCCN)C(=O)N1CCC(N)(C(=O)O)CC1 [CR845]
effect on respiratory rate (ICR mice [2]; 2 mg/kg): significant decrease
time post-administration at which respiratory rate was significantly decreased (ICR mice [2]; 2 mg/kg): 25 min
time post-drug at which effects on respiratory rate reached a peak (ICR mice [2]; 2 mg/kg): 45 min
effect on locomotor activity / total distance traveled (mice; 0.4 mg/kg, 15 min post-dosing): obvious decrease

CN1CC[C@]23c4c5ccc(O)c4O[C@H]2[C@@H](O)C=C[C@H]3[C@H]1C5 [morphine, morphine sulfate]
efficacy in writhing test (ICR mice [3]): vanished
effect on hindpaw incision-induced mechanical allodynia (SD rats [4]; 15 min after dosing): completely inhibited
effect on pain behaviors (SD rats [4]; 24 h post-dosing): no any effect
effect on CCI-induced mechanical allodynia (SD rats [5]; 15 min after dosing): completely inhibited
effect on pain behaviors (SD rats [5]; 24 h post-dosing): no any effect
central antinociceptive effect in hot-plate test (C57BL/6J mice): almost complete efficacy
effect on respiratory rate (ICR mice [2]; 10 mg/kg): significantly reduced
effect on distance traveled (mice; 10 mg/kg): reduced remarkedly
